We go through two molecules from patent US6454828B1 (Nulex, Inc., priority 2000, dated 2002).

For data set [1] the following is noted: ambient temperatures; cited from earlier work.
The test system of another data set is Pioneer brand 34RO7 corn. Put plainly: Greenhouse evaluation study on use of ZDC as zinc fertilizer on corn. It counts as in vivo. Conditions: for Dry Matter: corn harvested at 5-6 leaf stage, low-Zn Wymore silt loam soil; for Uptake P / Uptake Zn: calculated as dry matter times concentration; for Plant concentration P / Plant concentration Zn: dry plant material, ICP. As for the experimental part:
A greenhouse study was conducted to evaluate ZDC.
The soil source was a surface soil from a severely eroded Wymore silt loam soil (fine, smectitic, mesic Aquertic Argiudolls). Zinc deficiency symptoms on corn had been observed on the site during the 1999 growing season.
The soil was air-dried and sieved through a 1 cm coarse sieve. Five and one-half inch top diameter, plastic-lined pots were used. For each pot, 1600 g of soil was weighed into a plastic bag, and 1 g of monoammonium phosphate (11-52-0) was added to the plastic bags as a nitrogen and phosphorous source to ensure adequate growth. The MPA/soil was thoroughly mixed. About ⅔ of the soil from the thoroughly mixed MAP/soil was added to the plastic-lined pot, with roughly 2 inches of soil remaining to be added to the pot after starter fertilizer application and seed planting. A small furrow was made across the pot and a MAP/zinc starter mix added. An inch of soil was added and 4 seeds of Pioneer brand 34RO7 corn was planted directly over the fertilizer band, and the rest of the soil was added to the pot to cover the seed to one inch deep. Planting was on March 24. The fertilizer rate was calculated as a starter band rate based on the linear feet in an acre planted in 30 inch rows. A 5″ length of row was used in the calculations. […] Six replications were used. Pots were watered from the surface using distilled water. All pots received a blanket application of (NH4)2SO4 at the rate of 50#N/acre at the initial watering and twice more during the duration of the study.
Pots were thinned to three plants per pot approximately 1 week after emergence. Plants were harvested April 28 for dry matter yield by clipping about one-half inch above the soil surface. Samples were oven-dried at 65° C. for 48 hours and weighed.
The dry plant material was ground through a stainless steel small plant grinder to pass a 2 mm sieve. A quarter gram was weighed, wet-ashed with nitric-perchloric acid, and P and Zn concentration determined using an inductive couple plasma (ICP) instrument. Zinc and P uptake were calculated as dry matter times concentration.

Data set [2] in a line: Hydroscopicity check: granulated material stored overnight in the open. Particulars: for Hydroscopicity of granulated material (in words): material melt-granulated at about 340-360° F.; for % Gain (weight, stored in the open): 24 hrs. It counts as physicochemical. As for the experimental part:
A sample of the material granulated in the previous run at about 350° F. was screened, and the material falling into a −8 mesh class was stored overnight in the open to check for hydroscopicity.

SMILES strings stand for the structures.

On to `[Cl-].[Cl-].[Zn+2]` [zinc chloride], for which, in data set [1], the “Zinc content of solution (solubility)” value is 30 % zinc.
As to `N.N.[Cl][Zn][Cl]` [ZDC, Zinc diammine chloride], the “Plant height, visual (10# Zn vs 1# Zn)” value with Pioneer brand 34RO7 corn (10# Zn as ZDC compared with 1# Zn as ZDC, from shortly after emergence throughout the study) is “slightly shorter”. The “Dry Matter” value in the data set on Pioneer brand 34RO7 corn (Zn rate 1 lb/ac as starter band) is given as 7.88 g/pot; in the data set with Pioneer brand 34RO7 corn (Zn rate 10 lb/ac as starter band), 7.44 g/pot. The “Uptake P” value is reported as 28.4 mg/pot in the data set with Pioneer brand 34RO7 corn (Zn rate 1 lb/ac) and 24.6 mg/pot with Pioneer brand 34RO7 corn (Zn rate 10 lb/ac). Moreover, the “Uptake Zn” value in the data set on Pioneer brand 34RO7 corn (Zn rate 1 lb/ac) is “.21 μg/pot”; with Pioneer brand 34RO7 corn (Zn rate 10 lb/ac), “.35 μg/pot”. For the same molecule, the “Plant concentration P” value with Pioneer brand 34RO7 corn (Zn rate 1 lb/ac) was “.36%”; with Pioneer brand 34RO7 corn (Zn rate 10 lb/ac) it was “.33%”. Also, the “Plant concentration Zn” value in the data set on Pioneer brand 34RO7 corn (Zn rate 1 lb/ac) is on record as 27 ppm; in the data set on Pioneer brand 34RO7 corn (Zn rate 10 lb/ac), 47 ppm. Further, the figures for the “Hydroscopicity of granulated material (in words)” value in data set [2] and in data set [2] (listed as Zn(NH3)2Cl2) were “very low hydroscopicity” and “did not appear to be hydroscopic”, respectively. Besides, the “% Gain (weight, stored in the open)” value in data set [2] (−4+6 mesh granulated material) worked out at 0.18%; in data set [2] (−8 mesh granulated material), 0.37%. The “Weight gained at 24 hrs.” value in data set [2] (−4+6 mesh granulated material, starting Wt. 5.0774) turned out to be 0.0091; in data set [2] (−8 mesh granulated material, starting Wt. 5.5600), 0.0206.
